{"source": "patent US6844020B2", "about": "“Solutions of carotenoids for use in foods and personal care products” (Kemin Foods, L.C., priority 2002, dated 2005)", "key": {"[1]": {"assay": "Astaxanthin solubility in essential oils", "format": "physicochemical", "description": "(§1) Astaxanthin was dissolved in each oil until visibly saturated. The sample was then blanketed with argon and sonicated for ten minutes. When the sample was completely saturated, the solution was transferred to a micro centrifuge tube and centrifuged at 14,000 rpm for 10 minutes. The clarified oil was then analyzed for astaxanthin content. The method for analyzing lutein crystals was used to analyze astaxanthin, however, a few modifications were made. First, methylene chloride was substituted for […] when dissolving the samples. […] When determining total carotenoids, the absorbance was measured at 470 nm rather than 446 nm. [formula] [formula] [formula] Canthaxanthin in Essentials Oils"}, "[2]": {"assay": "Beta-carotene solubility in essential oils", "format": "physicochemical", "description": "Beta-carotene was dissolved in each oil until visibly saturated. The sample was then blanketed with argon and sonicated for ten minutes. When the sample was completely saturated, the solution was transferred to a micro centrifuge tube and centrifuged at 14,000 rpm for 10 minutes. The clarified oil was then analyzed for beta-carotene content. The method for analyzing lutein crystals, with a few modifications, was used to analyze beta-carotene. First, methylene chloride was substituted for […] when dissolving the samples. Second, when determining total carotenoids, the absorbance was measured at 453 nm rather than 446 nm. [formula] [formula] [formula]\n% Beta Carotene=% Carotenoids*(% Total HPLC area of Beta Carotene/100)"}, "[3]": {"details": "cited from earlier work"}, "[4]": {"format": "physicochemical", "description": "as §1, with “Canthaxanthin” for “Astaxanthin”, “microcentrifuge” for “micro centrifuge”, “canthaxanthin” for “astaxanthin”, “canthaxanthin,” for “astaxanthin,”, “466” for “470”, “Results and Discussion” for “[formula] Canthaxanthin in Essentials Oils”"}, "[5]": {"assay": "Zeaxanthin solubility in essential oils", "format": "physicochemical", "description": "as §1, with “Zeaxanthin” for “Astaxanthin”, “zeaxanthin” for “astaxanthin”, “zeaxanthin,” for “astaxanthin,”, “450” for “470”, “[formula]” for “[formula] Canthaxanthin in Essentials Oils”\n% Zeaxanthin=% Carotenoids*(% Total HPLC area of zeaxanthin/100)"}, "[6]": {"details": "consumption of lutein and zeaxanthin; Seddon et al., 1994; cited from earlier work"}, "[7]": {"details": "in Carvacrol (clear oil), 282-197, lot 13403CI"}, "[8]": {"details": "in Spearmint oil, 05-6250-11, lot SP43-0208"}, "[9]": {"details": "in Thyme oil, White, 05-6275-01, lot TLC11-T049"}, "[10]": {"details": "in Bay oil, 50-6025-01, lot BA41-0484"}, "[11]": {"details": "in Cornmint, redistilled oil, 50-6100-01, lot CR43-0155"}, "[12]": {"details": "in Peppermint, Yakima redistilled oil, 50-6225-21, lot PY43-0157"}, "[13]": {"details": "in Spearmint, redistilled oil, 50-6250-11, lot 39SR-0163"}, "[14]": {"details": "in Tea Tree oil, 50-6270-01, lot TX43-0146"}, "[15]": {"details": "in Thyme, Pure oil, 50-6275-04, lot TP41-0053"}, "[16]": {"details": "in Thyme, Red oil, 50-6275-02, lot TR43-0158"}, "[17]": {"details": "in Thyme, White oil, 50-6275-01, lot TLC11-T477"}, "[18]": {"details": "in Thyme, White (NOW) oil, 7635"}}, "note": "Several values for one entry are separate records, joined by “and”; a condition that tells them apart may be missing. Identical values can stand only once. Like-named read-outs stand apart in the source and are kept apart here."}
{"smiles": "CC1=C(/C=C/C(C)=C/C=C/C(C)=C/C=C/C=C(C)/C=C/C=C(C)/C=C/C2=C(C)C(=O)[C@@H](O)CC2(C)C)C(C)(C)C[C@H](O)C1=O", "note": "[Astaxanthin, astaxanthin]", "values": [{"measurement": "% Astaxanthin by HPLC", "setting": "[1]; [7]", "value": 0.2420, "unit": "%"}, {"measurement": "% Astaxanthin by HPLC", "setting": "[1]; in Carvacrol (clear oil), 282-197, lot 13403CI, listed as astaxanthin", "value": "~0.24", "unit": "%"}, {"measurement": "% Astaxanthin by HPLC", "setting": "[1]; [8]", "value": 0.0301, "unit": "%"}, {"measurement": "% Astaxanthin by HPLC", "setting": "[1]; [9]", "value": 0.1876, "unit": "%"}, {"measurement": "times less soluble than lutein", "setting": "[1]; in spearmint oil", "value": 33, "unit": "times"}, {"measurement": "times less soluble than lutein", "setting": "[1]; in white thyme oil", "value": 16, "unit": "times"}]}
{"smiles": "CC1=C(/C=C/C(C)=C/C=C/C(C)=C/C=C/C=C(C)/C=C/C=C(C)/C=C/C2=C(C)CCCC2(C)C)C(C)(C)CCC1", "note": "[Beta-carotene, β-carotene]", "values": [{"measurement": "% Beta-Carotene", "setting": "[2]; [10]", "value": "0.16% and 0.163%"}, {"measurement": "% Beta-Carotene", "setting": "[2]; [11]", "value": 0.252, "unit": "%"}, {"measurement": "% Beta-Carotene", "setting": "[2]; [12]", "value": 0.263, "unit": "%"}, {"measurement": "% Beta-Carotene", "setting": "[2]; [13]", "value": 0.532, "unit": "%"}, {"measurement": "% Beta-Carotene", "setting": "[2]; [14]", "value": 0.427, "unit": "%"}, {"measurement": "% Beta-Carotene", "setting": "[2]; [15]", "value": 0.245, "unit": "%"}, {"measurement": "% Beta-Carotene", "setting": "[2]; [16]", "value": 0.267, "unit": "%"}, {"measurement": "% Beta-Carotene", "setting": "[2]; [17]", "value": 0.273, "unit": "%"}, {"measurement": "reported solubility", "setting": "[3]; in \"fats and oils\"", "value": "0.05-0.08%"}]}
{"smiles": "CC1=C(/C=C/C(C)=C/C=C/C(C)=C/C=C/C=C(C)/C=C/C=C(C)/C=C/C2=C(C)C(=O)CCC2(C)C)C(C)(C)CCC1=O", "note": "[Canthaxanthin, canthaxanthin]", "values": [{"measurement": "% Canthaxanthin by HPLC", "setting": "[4]; [7]", "value": 0.0020, "unit": "%"}, {"measurement": "% Canthaxanthin by HPLC", "setting": "[4]; [8]", "value": 0.0028, "unit": "%"}, {"measurement": "% Canthaxanthin by HPLC", "setting": "[4]; [9]", "value": 0.0036, "unit": "%"}]}
{"smiles": "CC1=C(/C=C/C(C)=C/C=C/C(C)=C/C=C/C=C(C)/C=C/C=C(C)/C=C/C2=C(C)C[C@@H](O)CC2(C)C)C(C)(C)C[C@H](O)C1", "note": "[Zeaxanthin, zeaxanthin]", "values": [{"measurement": "% Carotenoids", "setting": "[5]; [10]", "value": 0.281, "unit": "%"}, {"measurement": "% Zeaxanthin", "setting": "[5]; [10]", "value": 0.276, "unit": "%"}, {"measurement": "% Carotenoids", "setting": "[5]; [11]", "value": 0.403, "unit": "%"}, {"measurement": "% Zeaxanthin", "setting": "[5]; [11]", "value": 0.397, "unit": "%"}, {"measurement": "% Carotenoids", "setting": "[5]; [12]", "value": 0.452, "unit": "%"}, {"measurement": "% Zeaxanthin", "setting": "[5]; [12]", "value": 0.446, "unit": "%"}, {"measurement": "% Carotenoids", "setting": "[5]; [13]", "value": 0.374, "unit": "%"}, {"measurement": "% Zeaxanthin", "setting": "[5]; [13]", "value": 0.369, "unit": "%"}, {"measurement": "% Carotenoids", "setting": "[5]; in Tea Tree (NOW) oil, 7625", "value": 0.398, "unit": "%"}, {"measurement": "% Zeaxanthin", "setting": "[5]; in Tea Tree (NOW) oil, 7625", "value": 0.394, "unit": "%"}, {"measurement": "% Carotenoids", "setting": "[5]; [14]", "value": 0.364, "unit": "%"}, {"measurement": "% Zeaxanthin", "setting": "[5]; [14]", "value": 0.361, "unit": "%"}, {"measurement": "% Carotenoids", "setting": "[5]; [15]", "value": 0.920, "unit": "%"}, {"measurement": "% Zeaxanthin", "setting": "[5]; [15]", "value": 0.916, "unit": "%"}, {"measurement": "% Carotenoids", "setting": "[5]; [16]", "value": 1.063, "unit": "%"}, {"measurement": "% Zeaxanthin", "setting": "[5]; [16]", "value": 1.059, "unit": "%"}, {"measurement": "% Carotenoids", "setting": "[5]; [18]", "value": 0.784, "unit": "%"}, {"measurement": "% Zeaxanthin", "setting": "[5]; [18]", "value": 0.782, "unit": "%"}, {"measurement": "% Carotenoids", "setting": "[5]; [17]", "value": 1.049, "unit": "%"}, {"measurement": "% Zeaxanthin", "setting": "[5]; [17]", "value": 1.043, "unit": "%"}, {"measurement": "zeaxanthin solubility", "setting": "[5]; in all of the oils except the thyme oils", "value": "less than 1%"}, {"measurement": "zeaxanthin solubility", "setting": "[5]; in thyme oil", "value": "~1", "unit": "%"}, {"measurement": "reduction in age-related macular degeneration", "setting": "[6]", "value": 57, "unit": "%"}, {"measurement": "reported solubility", "setting": "[3]; in corn oil", "value": 0.004, "unit": "%"}]}
